Assay results taken from article PMC10574767, “Extractives from Artemisia afra with Anti-Bacterial and Anti-Fungal Properties” (Plants, 2023).
Converted amounts (≈) assume the structure as drawn.

Key:
T. mentagrophytes = system: T. mentagrophytes; set-up: method as in PMID 19844829, PMID 35453556; conditions: cited from earlier work
[1] = system: A431 squamous carcinoma cell line; set-up: method as in PMID 35453556, PMID 21294076; conditions: cited from earlier work
Salmonella Typhimurium = system: Salmonella Typhimurium; set-up: method as in ref 36 = [36]; 36. Koay Y.C. Wong K.C. Hasnah O. Ibrahim E.M.S. Mohammad Z.A. Chemical constituents and biological activities of Strobilanthes crispus L. Rec. Nat. Prod. 2013 7 59 64; conditions: cited from earlier work
[2] = system: Pseudomonas aeruginosa ATCC 27853; assay: Serial dilution microplate MIC; type: cell-based; conditions: Table 2
Method: (§1) The MIC value of the plant extracts and isolated compounds against one fungal and five bacterial strains (Salmonella Typhimurium ATCC 39183, Escherichia coli ATCC 25922, Pseudomonas aeruginosa ATCC 27853, Staphylococcus aureus ATCC 29213, Enterococcus faecalis ATCC 29212, and fungi culture, Candida albicans ATCC 10231) was assessed in triplicate using the serial dilution microplate method; acetone and DMSO were used as solvents. Bacterial cultures were grown in Mueller Hinton broth (Sigma Aldrich, St. Louis, MO, USA) overnight and adjusted to McFarland standard 1 (1 × 10^8 CFU/mL). Then, 100 µL of samples were transferred into the first well of a sterile 96-well microtiter plate, which contained 100 µL of water and a 1:1 serial dilution with sterilized distilled water was carried out. In each well, 100 µL of appropriately adjusted fungal or bacterial cultures were added, and the bacteria were subjected to final concentrations of 250–3.9 μg/mL for pure compounds and 2.5–0.02 mg/mL for crude extracts. Amphotericin-B and Gentamicin (Virbac, Carros, France) served as positive controls for fungi and bacteria, respectively. For sterility, water served as control, while acetone served as a negative control. The microplates were then incubated for 24 h at 37 °C. Following incubation, 40 µL of 0.2 mg/mL p-iodonitrotetrazolium violet (INT, Sigma Aldrich) dissolved in water (hot) was added to the wells before being incubated at 37 °C for another 2 h. In the case of fungi, the INT was added before incubation. The MIC was measured visually as the lowest concentration of the compounds/extracts that inhibited proliferation.

[3] = system: Salmonella Typhimurium ATCC 39183; assay: Serial dilution microplate MIC; type: cell-based; conditions: Table 2
Method: as §1

[4] = system: Enterococcus faecalis ATCC 29212; assay: Serial dilution microplate MIC; type: cell-based; conditions: Table 2
Method: as §1

[5] = system: Staphylococcus aureus ATCC 29213; assay: Serial dilution microplate MIC; type: cell-based; conditions: Table 2
Method: as §1

[6] = system: Escherichia coli ATCC 25922; assay: Serial dilution microplate MIC; type: cell-based; conditions: Table 2
Method: as §1

Bacillus subtilis = system: Bacillus subtilis; set-up: method as in ref 36 = [36]; 36. Koay Y.C. Wong K.C. Hasnah O. Ibrahim E.M.S. Mohammad Z.A. Chemical constituents and biological activities of Strobilanthes crispus L. Rec. Nat. Prod. 2013 7 59 64; conditions: cited from earlier work
in vitro = conditions: monkey, LC50
Method: Cytotoxicity of compounds and extracts was tested against mammalian cells using the MTT assay. MCF-7 cancer cells were grown in a 5% CO2 incubator in Dulbecco’s Modified Eagle’s Medium (DMEM, Highveld Biological, Johannesburg, South Africa) supplemented with 10% fetal calf serum (Adcock-Ingram, Johannesburg, South Africa) and 1% penicillin-streptomycin (10,000 U/mL and 10 mg/mL streptomycin, Sigma Aldrich). In a 5% CO2 incubator, Vero cells were grown in a minimal essential medium (MEM, Highveld Biological, South Africa) supplemented with 5% fetal calf serum (Adcock-Ingram) and 0.1% gentamicin (Virbac). Cell suspensions were obtained from 70–80% confluent monolayer cultures and were plated in 96-well cell culture plates at a density of 1 × 10^4. Plates were incubated in a 5% CO2 incubator for 24 h at 37 °C. The cells were exposed to the extracts or compounds dissolved in the media at different concentrations for 48 h. Positive and negative controls were doxorubicin (Pfizer, New York, NYC, USA) and acetone or DMSO, respectively. After that, the wells were rinsed with phosphate-buffered saline (PBS, Sigma) and 200 µL of fresh medium was poured into the wells. Thirty microlitres (5 mg/mL) of MTT (Sigma) dissolved in PBS was added to each well, and the plates were incubated at 37 °C for 4 h. The medium from the wells was removed, rinsed, and 50 µL of 100% DMSO was added to the wells. At a wavelength of 570 nm, absorbance was measured using a microplate reader (BioTek Synergy, Beijing, China). Each sample concentration was tested in quadruplicate in two repeats (n = 8), and the concentration causing 50% inhibition of cell viability (LC50) was calculated. Selectivity index (SI) values for the extracts/compounds were obtained by dividing cytotoxicity LC50 values of normal (Vero) cells by those of the cancer cells.

[7] = system: Staphylococcus aureus, Bacillus thuringiensis, Escherichia coli, Enterobacter cloacae, and Klebsiella pneumoniae; set-up: method as in PMID 12120818; conditions: 1 mg of compound; cited from earlier work
MCF-7 = system: MCF-7; set-up: method as in PMID 35453556, PMID 21294076; conditions: cited from earlier work
[8] = system: one fungal and five bacterial strains; assay: Serial dilution microplate MIC, whole panel; type: cell-based; conditions: isolated compounds, all tested strains; highest concentration 250 µg/mL; read-out: MIC against all tested microorganisms
Method: as §1

T. rubrum = system: T. rubrum; set-up: method as in PMID 19844829, PMID 35453556; conditions: cited from earlier work
Escherichia coli = system: Escherichia coli; set-up: method as in ref 36 = [36]; 36. Koay Y.C. Wong K.C. Hasnah O. Ibrahim E.M.S. Mohammad Z.A. Chemical constituents and biological activities of Strobilanthes crispus L. Rec. Nat. Prod. 2013 7 59 64; conditions: cited from earlier work

CC1(C)CC[C@]2(C)CC=C3[C@]4(C)CC[C@H]5C(C)(C)[C@@H](O)CC[C@]5(C)[C@H]4CC[C@@]3(C)[C@@H]2C1 [Compound 3β-Taraxerol, 3β-taraxerol]
MIC T. mentagrophytes (T. mentagrophytes): 12.5 µg/mL (≈ 29.3 µM)
Cytotoxicity A431 [1]: 2.65 µg/mL
MIC Salmonella Typhimurium (Salmonella Typhimurium): 62.5 µg/mL (≈ 146 µM)
MIC ([2]; Pseudomonas aeruginosa, ATCC27853, isolated compounds, read-out: Minimum inhibitory concentration (MIC) P. aeruginosa): > 250 µg/mL
Selectivity index P. aeruginosa ([2]; in brackets, Vero LC50 vs MIC): < 0.8
MIC ([3]; Salmonella enterica, isolated compounds, read-out: Minimum inhibitory concentration (MIC) S. Typhimurium): 250 µg/mL (≈ 586 µM)
Selectivity index S. Typhimurium ([3]; in brackets, Vero LC50 vs MIC): > 0.8
MIC ([4]; Enterococcus faecalis, ATCC29212, isolated compounds, read-out: Minimum inhibitory concentration (MIC) E. faecalis): > 250 µg/mL
Selectivity index E. faecalis ([4]; in brackets, Vero LC50 vs MIC): < 0.8
MIC ([5]; Staphylococcus aureus, ATCC29213, isolated compounds, read-out: Minimum inhibitory concentration (MIC) S. aureus): 250 µg/mL (≈ 586 µM)
Selectivity index S. aureus ([5]; in brackets, Vero LC50 vs MIC): > 0.8
MIC ([6]; Escherichia coli, ATCC25922, isolated compounds, read-out: Minimum inhibitory concentration (MIC) E. coli): 250 µg/mL (≈ 586 µM)
Selectivity index E. coli ([6]; in brackets, Vero LC50 vs MIC): > 0.8
MIC Bacillus subtilis (Bacillus subtilis): 15.6 µg/mL (≈ 36.6 µM)
CC50 at 48 h (in vitro): > 200 µg/mL
Antimicrobial activity against two Gram-positive and three Gram-negative bacteria [7]: moderate antimicrobial activity
Cytotoxicity MCF-7 (MCF-7): inactive
MIC [8]: > 250 µg/mL
MIC T. rubrum (T. rubrum): 12.5 µg/mL (≈ 29.3 µM)
MIC Escherichia coli (Escherichia coli): 62.5 µg/mL (≈ 146 µM)
